Results reported in a compilation of properties of binary mixtures (doi:10.1016/j.molliq.2014.08.031).

Assay: xn = mol fraction of the nth substance listed
Conditions: 101 kPa

Work on `CCCC[n+]1ccn(C)c1.CS(=O)(=O)[O-]` + O yielded a viscosity (343.15 K, x2 = 0.7015) of 6.27 mPa·s, an electrical conductivity (343.15 K, x2 = 0.704) of 2.68 S/m and a viscosity (343.15 K, x2 = 0.7495) of 4.95 mPa·s. It also gave an electrical conductivity (343.15 K, x2 = 0.785) of 4.03 S/m, an electrical conductivity (343.15 K, x2 = 0.796) of 4.19 S/m and a viscosity (343.15 K, x2 = 0.8016) of 3.73 mPa·s. The electrical conductivity (343.15 K, x2 = 0.861) was 7.01 S/m, the viscosity (343.15 K, x2 = 0.9004) was 1.902 mPa·s and the viscosity (343.15 K, x2 = 0.9254) was 1.45 mPa·s. The electrical conductivity (343.15 K, x2 = 0.929) was 9.33 S/m, the viscosity (343.15 K, x2 = 0.9503) was 1.05 mPa·s and the electrical conductivity (343.15 K, x2 = 0.951) was 9.42 S/m. The electrical conductivity (343.15 K, x2 = 0.968) was 8.73 S/m, the viscosity (343.15 K, x2 = 0.975) was 0.672 mPa·s and the electrical conductivity (344.15 K, x1 = 0.004) was 2.52 S/m. The electrical conductivity (344.15 K, x1 = 0.008) was 4.46 S/m, the electrical conductivity (344.15 K, x1 = 0.019) was 7.24 S/m and the electrical conductivity (344.15 K, x2 = 0.785) was 4.1 S/m. The electrical conductivity (344.15 K, x2 = 0.796) was 4.32 S/m, the electrical conductivity (344.15 K, x2 = 0.861) was 7.13 S/m and the electrical conductivity (344.15 K, x2 = 0.892) was 8.05 S/m. For the same molecule, the electrical conductivity (344.15 K, x2 = 0.951) was 9.81 S/m, the electrical conductivity (345.15 K, x1 = 0.008) was 4.43 S/m and the electrical conductivity (345.15 K, x1 = 0.019) was 7.32 S/m. For the same molecule, the electrical conductivity (345.15 K, x2 = 0.704) was 2.81 S/m, the electrical conductivity (345.15 K, x2 = 0.861) was 7.27 S/m and the electrical conductivity (345.15 K, x2 = 0.892) was 8.29 S/m. The electrical conductivity (345.15 K, x2 = 0.929) was 9.54 S/m, the electrical conductivity (346.15 K, x1 = 0.004) was 2.55 S/m and the electrical conductivity (346.15 K, x1 = 0.019) was 7.4 S/m. For the same molecule, the electrical conductivity (346.15 K, x2 = 0.785) was 4.26 S/m, the electrical conductivity (346.15 K, x2 = 0.861) was 7.5 S/m and the electrical conductivity (346.15 K, x2 = 0.892) was 8.44 S/m. The electrical conductivity (346.15 K, x2 = 0.929) was 9.69 S/m, the electrical conductivity (346.15 K, x2 = 0.968) was 9.3 S/m and the electrical conductivity (347.15 K, x1 = 0.004) was 2.58 S/m. For the same molecule, the electrical conductivity (347.15 K, x1 = 0.008) was 4.7 S/m, the electrical conductivity (347.15 K, x1 = 0.019) was 7.35 S/m and the electrical conductivity (347.15 K, x2 = 0.704) was 2.95 S/m. It also gave an electrical conductivity (347.15 K, x2 = 0.785) of 4.32 S/m, an electrical conductivity (347.15 K, x2 = 0.929) of 9.84 S/m and an electrical conductivity (347.15 K, x2 = 0.951) of 10.2 S/m. It also gave an electrical conductivity (347.15 K, x2 = 0.968) of 9.4 S/m, an electrical conductivity (348.15 K, x1 = 0.008) of 4.66 S/m and an electrical conductivity (348.15 K, x1 = 0.019) of 7.57 S/m. It also gave an electrical conductivity (348.15 K, x2 = 0.704) of 3.03 S/m, an electrical conductivity (348.15 K, x2 = 0.785) of 4.41 S/m and an electrical conductivity (348.15 K, x2 = 0.796) of 4.64 S/m. The electrical conductivity (348.15 K, x2 = 0.861) was 7.68 S/m, the electrical conductivity (348.15 K, x2 = 0.929) was 9.94 S/m and the electrical conductivity (348.15 K, x2 = 0.951) was 10.4 S/m. The electrical conductivity (348.15 K, x2 = 0.968) was 9.35 S/m, the electrical conductivity (349.15 K, x1 = 0.004) was 2.62 S/m and the electrical conductivity (349.15 K, x1 = 0.008) was 4.72 S/m. It also gave an electrical conductivity (349.15 K, x1 = 0.019) of 7.54 S/m, an electrical conductivity (349.15 K, x2 = 0.704) of 3.08 S/m and an electrical conductivity (349.15 K, x2 = 0.785) of 4.52 S/m. It also gave an electrical conductivity (349.15 K, x2 = 0.892) of 8.91 S/m, an electrical conductivity (349.15 K, x2 = 0.929) of 10.1 S/m and an electrical conductivity (349.15 K, x2 = 0.968) of 9.59 S/m. For the same molecule, the electrical conductivity (350.15 K, x1 = 0.004) was 2.67 S/m, the electrical conductivity (350.15 K, x1 = 0.008) was 4.85 S/m and the electrical conductivity (350.15 K, x2 = 0.704) was 3.16 S/m. For the same molecule, the electrical conductivity (350.15 K, x2 = 0.785) was 4.57 S/m, the electrical conductivity (350.15 K, x2 = 0.796) was 4.8 S/m and the electrical conductivity (350.15 K, x2 = 0.861) was 7.93 S/m. The electrical conductivity (350.15 K, x2 = 0.892) was 9.06 S/m, the electrical conductivity (350.15 K, x2 = 0.929) was 10.3 S/m and the electrical conductivity (350.15 K, x2 = 0.951) was 10.7 S/m. The electrical conductivity (350.15 K, x2 = 0.968) was 9.73 S/m, the electrical conductivity (351.15 K, x1 = 0.004) was 2.68 S/m and the electrical conductivity (351.15 K, x1 = 0.008) was 4.84 S/m. The electrical conductivity (351.15 K, x1 = 0.019) was 7.88 S/m, the electrical conductivity (351.15 K, x2 = 0.704) was 3.27 S/m and the electrical conductivity (351.15 K, x2 = 0.785) was 4.68 S/m. The electrical conductivity (351.15 K, x2 = 0.796) was 4.91 S/m, the electrical conductivity (351.15 K, x2 = 0.861) was 8.29 S/m and the electrical conductivity (351.15 K, x2 = 0.892) was 9.2 S/m. For the same molecule, the electrical conductivity (351.15 K, x2 = 0.929) was 10.5 S/m, the electrical conductivity (351.15 K, x2 = 0.951) was 10.8 S/m and the electrical conductivity (351.15 K, x2 = 0.968) was 9.91 S/m. It also gave an electrical conductivity (352.15 K, x1 = 0.004) of 2.71 S/m, an electrical conductivity (352.15 K, x1 = 0.008) of 4.89 S/m and an electrical conductivity (352.15 K, x2 = 0.704) of 3.37 S/m. It also gave an electrical conductivity (352.15 K, x2 = 0.785) of 4.8 S/m, an electrical conductivity (352.15 K, x2 = 0.796) of 4.99 S/m and an electrical conductivity (352.15 K, x2 = 0.861) of 8.21 S/m. The electrical conductivity (352.15 K, x2 = 0.892) was 9.33 S/m, the electrical conductivity (352.15 K, x2 = 0.929) was 10.6 S/m and the electrical conductivity (352.15 K, x2 = 0.968) was 9.86 S/m. It also gave an electrical conductivity (353.15 K, x1 = 0.008) of 4.92 S/m, an electrical conductivity (353.15 K, x1 = 0.019) of 8.06 S/m and an electrical conductivity (353.15 K, x2 = 0.892) of 9.44 S/m. For the same molecule, the electrical conductivity (353.15 K, x2 = 0.929) was 10.7 S/m, the electrical conductivity (353.15 K, x2 = 0.968) was 10.1 S/m and the electrical conductivity (354.15 K, x1 = 0.004) was 2.79 S/m. For the same molecule, the electrical conductivity (354.15 K, x1 = 0.008) was 4.98 S/m, the electrical conductivity (354.15 K, x1 = 0.019) was 8.03 S/m and the electrical conductivity (354.15 K, x2 = 0.704) was 3.55 S/m. For the same molecule, the electrical conductivity (354.15 K, x2 = 0.785) was 4.98 S/m, the electrical conductivity (354.15 K, x2 = 0.796) was 5.01 S/m and the electrical conductivity (354.15 K, x2 = 0.892) was 9.6 S/m. For the same molecule, the electrical conductivity (354.15 K, x2 = 0.929) was 10.8 S/m, the electrical conductivity (354.15 K, x2 = 0.951) was 11.1 S/m and the electrical conductivity (354.15 K, x2 = 0.968) was 10.2 S/m. For the same molecule, the electrical conductivity (355.15 K, x1 = 0.008) was 5.04 S/m, the electrical conductivity (355.15 K, x1 = 0.019) was 8.25 S/m and the electrical conductivity (355.15 K, x2 = 0.785) was 5.05 S/m. The electrical conductivity (355.15 K, x2 = 0.796) was 5.26 S/m, the electrical conductivity (355.15 K, x2 = 0.861) was 8.55 S/m and the electrical conductivity (355.15 K, x2 = 0.892) was 9.73 S/m. The electrical conductivity (355.15 K, x2 = 0.929) was 11 S/m, the electrical conductivity (355.15 K, x2 = 0.951) was 11.1 S/m and the electrical conductivity (356.15 K, x1 = 0.008) was 5.09 S/m. For the same molecule, the electrical conductivity (356.15 K, x1 = 0.019) was 8.34 S/m, the electrical conductivity (356.15 K, x2 = 0.704) was 3.73 S/m and the electrical conductivity (356.15 K, x2 = 0.785) was 5.15 S/m. For the same molecule, the electrical conductivity (356.15 K, x2 = 0.796) was 5.34 S/m, the electrical conductivity (356.15 K, x2 = 0.861) was 8.43 S/m and the electrical conductivity (356.15 K, x2 = 0.892) was 9.89 S/m. The electrical conductivity (356.15 K, x2 = 0.929) was 11.1 S/m, the electrical conductivity (356.15 K, x2 = 0.951) was 11.2 S/m and the electrical conductivity (356.15 K, x2 = 0.968) was 10.4 S/m. It also gave an electrical conductivity (357.15 K, x1 = 0.008) of 5.13 S/m, an electrical conductivity (357.15 K, x1 = 0.019) of 8.43 S/m and an electrical conductivity (357.15 K, x2 = 0.704) of 3.83 S/m. For the same molecule, the electrical conductivity (357.15 K, x2 = 0.785) was 5.23 S/m, the electrical conductivity (357.15 K, x2 = 0.796) was 5.41 S/m and the electrical conductivity (357.15 K, x2 = 0.861) was 8.6 S/m. It also gave an electrical conductivity (357.15 K, x2 = 0.892) of 10 S/m, an electrical conductivity (357.15 K, x2 = 0.968) of 10.6 S/m and an electrical conductivity (358.15 K, x1 = 0.004) of 2.9 S/m. It also gave an electrical conductivity (358.15 K, x1 = 0.008) of 5.18 S/m, an electrical conductivity (358.15 K, x1 = 0.019) of 8.47 S/m and an electrical conductivity (358.15 K, x2 = 0.704) of 3.88 S/m. The electrical conductivity (358.15 K, x2 = 0.785) was 5.22 S/m, the electrical conductivity (358.15 K, x2 = 0.796) was 5.47 S/m and the electrical conductivity (358.15 K, x2 = 0.861) was 8.73 S/m. The electrical conductivity (358.15 K, x2 = 0.929) was 11.3 S/m, the electrical conductivity (358.15 K, x2 = 0.951) was 11.5 S/m and the electrical conductivity (358.15 K, x2 = 0.968) was 10.6 S/m.
